{"source": "patent US11590155B2", "about": "“Substituted nucleosides, nucleotides and analogs thereof” (priority 2014, dated 2023)"}
{"system": "Ebola", "assay": "microbe, parasite or virus in culture", "type": "cell-based", "settings": "Zaire ebolavirus, HeLa, read-out: EC50 against Ebola", "units": {"EC50": "nM"}}
{"smiles": "Nc1ccn([C@@H]2O[C@@](CO)(CCl)[C@@H](O)[C@H]2F)c(=O)n1", "note": "[compound 315]", "EC50": "< 25000"}
{"smiles": "[N-]=[N+]=NC[C@]1(CO)O[C@@H](n2ccc(N)nc2=O)[C@H](F)[C@@H]1O", "note": "[Compound 106]", "EC50": "< 2000"}
{"smiles": "[N-]=[N+]=N[C@]1(CO)O[C@@H](n2ccc(N)nc2=O)[C@H](F)[C@@H]1O", "note": "[compound 332]", "EC50": "< 2000"}
